{"source": "patent US20160157483A1", "about": "“COMPOSITION FOR THE CLEANING AND PROTECTION OF TECHNICAL SURFACES” (aimecs GmbH, priority 2013, published 2016)", "key": {"Streptococcus gordonii": {"test_system": "Streptococcus gordonii", "test": "Antibacterial effect against Streptococcus gordonii, growth by change of optical density", "assay_type": "cell-based", "settings": "5 mg in 6 well plates, 0 h vs 24 h, starting density 1.8; P/S 4%", "experimental": "The microparticles loaded with totarol were then tested for their antibacterial effect against Streptococcus gordonii (S.G.). For this purpose, 5 mg of totarol-loaded microparticles were given into 6 well plates and covered with a solution of S.G. For comparison, 5 mg of unloaded microparticles, 5 mg of free totarol, pure medium (Schaedler Medium of the company BD), medium with S.G. and medium with S.G. and 4% P/S (penicillin streptomycin) as positive control were measured. By means of the change of the optical density the growth of S.G. was determined. The starting density of S.G. was 1.8. In FIG. 3 the measured results at zero hour (left columns) and after 24 hours (right columns) is shown."}, "Staphylococcus aureus [1]": {"test_system": "Staphylococcus aureus", "test": "Growth of S. aureus in suspension, optical density at 600 nm", "assay_type": "cell-based", "settings": "dissolved in ethyl acetate, 6 hours of incubation", "experimental": "The antibacterial effect on Staphylococcus aureus (S. aureus) of totarol and the microparticles loaded with totarol was tested in vitro in a further experiment. It was shown that a concentration of 0.1 mg/ml of totarol dissolved in ethyl acetate (EtAc) was sufficient to inhibit the growth of S. aureus in suspension after 6 hours of incubation."}, "Staphylococcus aureus [2]": {"test_system": "Staphylococcus aureus", "test": "S. aureus seeded onto agar plates, inhibition zone", "assay_type": "cell-based", "settings": "1 mg pure totarol or 10 mg microparticles loaded with about 1 mg totarol, 24 hours at 37° C.", "experimental": "In further experiments the S. aureus bacteria were seeded onto agar plates and treated with 1 mg of pure totarol, 10 mg of unloaded microparticles, and 10 mg of microparticles loaded with about 1 mg of totarol."}, "Staphylococcus aureus [3]": {"test_system": "Staphylococcus aureus", "test": "Soaked filter paper on agar plates with S. aureus, inhibition zone", "assay_type": "cell-based", "settings": "24 hours at 37° C., compared with EtAc control", "experimental": "The experiment was repeated with filter paper which was soaked with pure totarol, with microparticles loaded with totarol and with EtAc, and which was incubated on agar plates, onto which S. aureus was cultivated."}, "fresh human whole blood": {"test_system": "fresh human whole blood", "test": "Hemocompatibility in whole blood according to ISO 10993-4", "assay_type": "cell-based", "settings": "1 hour", "experimental": "Finally in vitro tests were performed where totarol and microparticles loaded with totarol were brought into contact with whole blood. The effect on erythrozytes, platelets, leucozytes as well as the complement and coagulation cascade was examined.\nThe measurements were made according ISO 10993-4, in determining various markers with a central importance within the hemostatic system.\nShown are the means values and standard deviations (n=3).\nShown are the mean values and standard deviations (n=3)."}, "[4]": {"test_system": "multi-resistant Staphylococcus aureus (MRSA)", "settings": "cited from earlier work"}, "bacteria": {"test_system": "bacteria", "settings": "in vitro; cited from earlier work"}, "human cells": {"test_system": "human cells", "settings": "cited from earlier work"}}}
{"compound": "CC(C)c1c(O)ccc2c1CC[C@H]1C(C)(C)CCC[C@]21C", "note": "[totarol, (4bS,8aS)-4b,8,8-Trimethyl-1-propan-2-yl-5,6,7,8a,9,10-hexahydrophenanthren-2-ol]", "values": [{"measurement": "reduction of the bacterial concentration (growth of S.G. by optical density)", "setting": "Streptococcus gordonii", "value": "stronger reduction of the bacterial concentration than totarol-loaded microparticles"}, {"measurement": "concentration sufficient to inhibit the growth of S. aureus in suspension", "setting": "Staphylococcus aureus [1]", "value": 0.1, "unit": "mg/mL"}, {"measurement": "inhibition zone on agar plates", "setting": "Staphylococcus aureus [2]", "value": "clear inhibition zone"}, {"measurement": "inhibition zone around the filter paper", "setting": "Staphylococcus aureus [3]", "value": "clear inhibition zone"}, {"measurement": "effects on the hemostatic system", "setting": "fresh human whole blood; 0.1 mg/ml totarol, 1 mg/ml totarol MP, vs control and unloaded microparticles", "value": "neither totarol nor the microparticles loaded with totarol have negative effects"}, {"measurement": "hemocompatibility", "setting": "fresh human whole blood; blood contact", "value": "good hemocompatibility"}, {"measurement": "effectiveness against MRSA", "setting": "[4]", "value": "effective"}, {"measurement": "minimum concentration where totarol still has an antibacterial effect", "setting": "bacteria", "value": 2, "unit": "µg/mL"}, {"measurement": "concentration at which toxic and inhibits the growth of human cells", "setting": "human cells", "value": "more than 5 μg/ml"}]}
